The values below come from patent US20220324803A1 (Teon Therapeutics, Inc., priority 2019, published 2022).

Some results are limits rather than exact numbers.

The target in this assay is T1, human Prostanoid EP4 Receptor (EP4) (Homo sapiens, UniProt P35408).
T1 construct: expressed in transfected cells; host or cells: HEK293 (G418 selection); membranes prepared by differential centrifugation
T1 sequence (P35408 whole entry): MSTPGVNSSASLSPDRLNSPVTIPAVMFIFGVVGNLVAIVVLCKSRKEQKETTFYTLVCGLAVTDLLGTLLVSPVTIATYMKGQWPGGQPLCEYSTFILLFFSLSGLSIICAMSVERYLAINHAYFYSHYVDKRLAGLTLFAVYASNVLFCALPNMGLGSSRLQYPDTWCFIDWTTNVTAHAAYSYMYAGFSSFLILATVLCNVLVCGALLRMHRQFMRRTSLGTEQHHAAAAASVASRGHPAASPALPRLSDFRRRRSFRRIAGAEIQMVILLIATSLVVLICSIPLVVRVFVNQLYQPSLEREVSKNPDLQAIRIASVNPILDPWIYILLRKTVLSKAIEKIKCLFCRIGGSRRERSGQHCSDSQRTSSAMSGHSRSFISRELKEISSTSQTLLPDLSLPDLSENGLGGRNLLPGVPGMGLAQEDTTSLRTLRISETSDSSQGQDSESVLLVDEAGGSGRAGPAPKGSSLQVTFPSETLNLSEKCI
Put plainly: Prostanoid EP4 binding assay (3H-prostaglandin E2 displacement, cell membranes). The settings on record: HEK293 cell membranes with human EP4, 3H-prostaglandin E2, 24° C. As for the experimental part:
HEK293 cells transfected with human Prostanoid EP4 Receptor (EP4) are maintained in DMEM supplemented with L-Glutamine, 10% FBS and 300 μg/ml G418. Cells are harvested and membranes prepared by differential centrifugation, following lysis of the cells in the presence of protease inhibitors, for use in the receptor binding assay. EP4 binding assay is performed in 50 mM HEPES pH7.4, 5 mM MgCl2, 1 mM CaCl2) and 0.2% BSA. Testing compounds are diluted with DMSO to make 8-point 4-fold serial dilution. Cell membrane homogenates are incubated at 24° C. with ^3H-prostaglandin E2 in the absence or presence of the testing compound in assay buffer. Nonspecific binding (Low control: LC) and total binding (High control: HC) are determined in the presence or absence of saturated cold ligand Prostaglandin E2 (PGE2). Specific binding is calculated by subtracting nonspecific binding from total binding. When binding assays are completed, the reaction mixture is filtered rapidly under vacuum through glass fiber filters (GF/C, Packard) presoaked with 0.5% BSA for at least 0.5 hour at room temperature and then washed for 4 times with cold wash buffer (50 mM HEPES pH7.4, 500 mM NaCl, 0.1% BSA) using a 96-sample Perkin Elmer Filtermate Harvester (Unifilter, Packard). The filters are dried for 1 hour at 50 degrees then counted for radioactivity in a scintillation counter using Perkin Elmer Microscint 20 cocktail. ^3H trapped on filter is counted using Perkin Elmer MicroBeta2 Reader. Inhibition is calculated using following equation: % Inhibition=(1−(Assay well−Average_LC)/(Average_HC−Average_LC))×100%. The results are expressed as a percent inhibition of the control radioligand specific binding. Data are analyzed and IC50 is calculated using GraphPad Prism 5 and the model “log(inhibitor) vs. response—Variable slope”. The binding affinity of the compounds is determined by using the Cheng and Prusoff equation Ki=IC50/(1+[radioligand]/Kd).
Regarding `O=C(N[C@H]1CC2(C1)C[C@H](C(=O)O)C2)c1ncn2cccc(Cc3ccc(C(F)(F)F)cc3)c12` (single isomer, unassigned) [Compound 6A, cis-2-[[8-[[4-(trifluoromethyl)phenyl]methyl]imidazo[1,5-a]pyridine-1-carbonyl]amino]spiro[3.3]heptane-6-carboxylic acid], the inhibition constant (Ki) (usually the equilibrium dissociation constant of an inhibitor or competing ligand from its target) is greater than 500 nM.

For `O=C(N[C@H]1CC2(C1)C[C@H](C(=O)O)C2)c1ncn2cccc(Cc3ccc(C(F)(F)F)cc3)c12` (single isomer, unassigned) [Compound 6B, trans-2-[[8-[[4-(trifluoromethyl)phenyl]methyl]imidazo[1,5-a]pyridine-1-carbonyl]amino]spiro[3.3]heptane-6-carboxylic acid], the Ki was less than 100 nM. The compound `CCn1nc(C(=O)N[C@H]2CC3(C2)C[C@H](C(=O)O)C3)c2c(Cc3ccc(C(F)(F)F)cc3)cccc21` (single isomer, unassigned) [Compound 11A, cis-2-[[1-ethyl-4-[[4-(trifluoromethyl)phenyl]methyl]indazole-3-carbonyl]amino]spiro[3.3]heptane-6-carboxylic acid] gave an inhibition constant (Ki) of 100 to 499 nM. The result for `CCn1nc(C(=O)N[C@H]2CC3(C2)C[C@H](C(=O)O)C3)c2c(Cc3ccc(C(F)(F)F)cc3)cccc21` (single isomer, unassigned) [Compound 11B, trans-2-[[1-ethyl-4-[[4-(trifluoromethyl)phenyl]methyl]indazole-3-carbonyl]amino]spiro[3.3]heptane-6-carboxylic acid] reads less than 100 nM; that for `O=C(NC1CC2(C1)CC(C(=O)O)C2)c1cnn2cccc(Cc3cc4ccccc4cn3)c12` (single isomer, unassigned) [Compound 13B, trans-2-[[4-(3-isoquinolylmethyl)pyrazolo[1,5-a]pyridine-3-carbonyl]amino]spiro[3.3]heptane-6-carboxylic acid], less than 100 nM. The result for `C[C@H](NC(=O)c1ncn2cccc(Cc3ccc(C(F)(F)F)cc3)c12)c1ccc(C(=O)O)cc1` [Compound 5, 4-[(1S)-1-[[8-[[4-(trifluoromethyl)phenyl]methyl]imidazo[1,5-a]pyridine-1-carbonyl]amino]ethyl]benzoic acid] reads 100 to 499 nM. The result for `O=C(O)CC12CC(NC(=O)c3ncn4cccc(Cc5ccc(C(F)(F)F)cc5)c34)(C1)C2` [Compound 17, 2-[3-[[8-[[4-(trifluoromethyl)phenyl]methyl]imidazo[1,5-a]pyridine-1-carbonyl]amino]-1-bicyclo[1.1.1]pentanyl]acetic acid] reads 100 to 499 nM; that for `CCn1nc(C(=O)NC23CC(CC(=O)O)(C2)C3)c2c(Cc3ccc(C(F)(F)F)cc3)cccc21` [Compound 19, 2-[3-[[1-ethyl-4-[[4-(trifluoromethyl)phenyl]methyl]indazole-3-carbonyl]amino]-1-bicyclo[1.1.1]pentanyl]acetic acid], 100 to 499 nM. `CC(C)n1nc(C(=O)N[C@@H](C)c2ccc(C(=O)O)cc2)c2c(Cc3ccc(C(F)(F)F)cc3)cccc21` [Compound 20, 4-[(1S)-1-[[1-isopropyl-4-[[4-(trifluoromethyl)phenyl]methyl]indazole-3-carbonyl]amino]ethyl]benzoic acid] gave a Ki of less than 100 nM. Compound `CC(C)n1nc(C(=O)N[C@H]2CC3(C2)C[C@H](C(=O)O)C3)c2c(Cc3ccc(C(F)(F)F)cc3)cccc21` (stereo partly drawn) [Compound 21, trans-2-[[1-isopropyl-4-[[4-(trifluoromethyl)phenyl]methyl]indazole-3-carbonyl]amino]spiro[3.3]heptane-6-carboxylic acid] gave a Ki of less than 100 nM. In the case of `CC(C)n1nc(C(=O)NC23CC(CC(=O)O)(C2)C3)c2c(Cc3ccc(C(F)(F)F)cc3)cccc21` [Compound 22, 2-[3-[[1-isopropyl-4-[[4-(trifluoromethyl)phenyl]methyl]indazole-3-carbonyl]amino]-1-bicyclo[1.1.1]pentanyl]acetic acid] it was greater than 500 nM.
